# Like-named read-outs stand apart in the source and are kept apart here.
# What was measured:
# Type in all cases: cell-based
# SMN2 CJ mRNA = assay: Gene panel canonical junction qPCR assay, SMN2; conditions: decrease in CJ mRNA levels, gene panel; read-out: SMN2 IC50
# Description: (§1) The expression of a target mRNA was measured by detecting the formation of an exon-exon junction in the canonical transcript (CJ). A compound mediated exon-inclusion event was detected by observing an increase in formation of a new junction with an alternative exon (AJ). Real-time qPCR assays were used to detect these splicing switches and interrogate the potency of various compounds towards different target genes. A high-throughput real time quantitative PCR (RT-qPCR) assay was developed to measure these two isoforms of the mRNA (CJ and AJ) for an exemplary gene, HTT, together with a control housekeeping gene, GAPDH or GUSB or PPIA, used for normalization. Briefly, the A673 or K562 cell line was treated with various compounds described herein (e.g., compounds of Formula (I)). After treatment, the levels of the HTT mRNA targets were determined from each sample of cell lysate by cDNA synthesis followed by qPCR. The A673 cell line was cultured in DMEM with 10% FBS. Cells were diluted with full growth media and plated in a 96-well plate (15,000 cells in 100 ul media per well). The plate was incubated at 37° C. with 5% CO2 for 24 hours to allow cells to adhere. An 11-point 3-fold serial dilution of the compounds was made in DMSO then diluted in media in an intermediate plate. Compounds were transferred from the intermediate plate to the cell plate with the top dose at a final concentration of 10 uM in the well. Final DMSO concentration was kept at or below 0.25%. The cell plate was returned to the incubator at 37° C. with 5% CO2 for an additional 24 hours. The K562 cell line was cultured in IMDM with 10% FBS. For K562, cells were diluted with full growth media and plated in either a 96-well plate (50,000 cells in 50 uL media per well) or a 384-well plate (8,000-40,000 cells in 45 uL media per well). An 11-point 3-fold serial dilution of the compounds were made in DMSO then diluted in media in an intermediate plate. Compound was transferred from the intermediate plate to the cell plate with the top dose at a final concentration of 10 uM in the well. Final DMSO concentration was kept at or below 0.25%. Final volume was 100 uL for 96-well plate and 50 uL for 384-well plate. The cell plate was then placed in an incubator at 37° C. with 5% CO2 for 24 hours. The cells were then gently washed with 50 uL-100 uL cold PBS before proceeding to addition of lysis buffer. 30 uL-50 uL of room temperature lysis buffer with DNAse I (and optionally RNAsin) was added to each well. Cells were shaken/mixed thoroughly at room temperature for 5-10 minutes for lysis to take place and then 3 uL-5 uL of room temperature stop solution was added and wells were shaken/mixed again. After 2-5 minutes, the cell lysate plate was transferred to ice for RT-qPCR reaction setup. The lysates could also be frozen at −80° C. for later use. In some cases, a direct lysis buffer was used. An appropriate volume of 3× lysis buffer (10 mM Tris, 150 mM NaCl, 1.5%-2.5% Igepal and 0.1-1 U/uL RNAsin, pH 7.4) was directly added to either K562 or A673 cells in media and mixed by pipetting 3 times. The plates were then incubated at room temperature with shaking/rocking for 20-50 minutes to allow for lysis to take place. After this time, the cell lysate plate was transferred to ice to set up for the RT-qPCR reactions. The lysates could also be frozen at −80° C. for later use. To set up 10 uL RT-qPCR reactions, cell lysates were transferred to 384-well qPCR plates containing the master mix according to the table below. The plates were sealed, gently vortexed, and spun down before the run. The volumes were adjusted accordingly in some instances where the reaction was carried in 20 uL. The table below summarizes the components of the RT-qPCR reactions: The RT-qPCR reaction was performed using a QuantStudio (ThermoFisher) under the following fast cycling conditions. All samples and standards were analyzed at least in duplicate.
# HTT mRNA = assay: Splicing assay (RT-qPCR) monitoring HTT canonical junction (CJ) and alternative junction (AJ) mRNA isoforms; conditions: A673 or K562 cells, 24 h treatment, top dose 10 uM
# Method in brief: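 A673 or K562 cells treated 24 h at 37 °C with an 11-point 3-fold dilution (top 10 uM final, DMSO ≤0.25%). Lysates assayed by one-step RT-qPCR for HTT CJ and AJ isoforms, normalized to GAPDH, GUSB (K562) or PPIA (A673).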
# Target C CJ mRNA = assay: Gene panel canonical junction qPCR assay, Target C; conditions: decrease in CJ mRNA levels, gene panel; read-out: Target C IC50
# Description: as §1
# HTT CJ mRNA = assay: Gene panel canonical junction qPCR assay, HTT; conditions: decrease in CJ mRNA levels, gene panel; read-out: HTT IC50
# Description: as §1
# [1] = decrease in CJ mRNA (50% response), read-out: HTT CJ AC50
# [2] = increase in AJ mRNA (50% response), read-out: HTT AJ AC50
IC50 (SMN2 CJ mRNA) [µM],IC50 (Target C CJ mRNA) [µM],IC50 (HTT CJ mRNA) [µM],Structure (SMILES),AC50 (HTT mRNA; [1]) [µM],AC50 (HTT mRNA; [2]) [µM]
0.1 to 1,0.1 to 1,0.1 to 1,Cc1cn2nc(-c3ccc4nc(N5CCNC6(CC6)C5)[nH]c(=O)c4c3)cc(C)c2n1 [Compound 190],0.1 to 1,0.1 to 1
> 10,> 10,> 10,"Cc1cn2cc(-c3ccc4nc(N5CCNC6(CC6)C5)[nH]c(=O)c4c3)cc(F)c2n1 [Compound 191, 6-(8-fluoro-2-methylimidazo[1,2-a]pyridin-6-yl)-2-(4,7-diazaspiro[2.5]octan-7-yl)quinazolin-4(3H)-one]",> 10,> 10
> 10,> 10,> 10,"Cc1cn2nc(-c3ccc4nc(NC5CCNCC5)[nH]c(=O)c4c3)cc(C)c2n1 [Compound 192, 6-(2,8-dimethylimidazo[1,2-b]pyridazin-6-yl)-2-(piperidin-4-ylamino)quinazolin-4(3H)-one]",> 10,> 10
> 10,> 10,> 10,"CN1CCC(Nc2ccc3c(=O)n(-c4ccc5cn(C)nc5c4)cnc3c2)CC1 [Compound 203, 3-(2-methyl-2H-indazol-6-yl)-7-((1-methylpiperidin-4-yl)amino)quinazolin-4(3H)-one]",> 10,> 10
> 10,> 10,> 10,"Cn1cc2ccc(-n3cnc4cc(NC5CCNCC5)ccc4c3=O)cc2n1 [Compound 204, 3-(2-methyl-2H-indazol-6-yl)-7-(piperidin-4-ylamino)quinazolin-4(3H)-one]",> 10,> 10
< 0.1,0.1 to 1,0.1 to 1,"Cc1cn2cc(-c3ccc4c(=O)n(C5CCNCC5)cnc4c3)cc(F)c2n1 [Compound 205, 7-(8-fluoro-2-methylimidazo[1,2-a]pyridin-6-yl)-3-(piperidin-4-yl)quinazolin-4(3H)-one]",0.1 to 1,0.1 to 1
< 0.1,0.1 to 1,0.1 to 1,"Cn1cc2cc(-c3ccc4c(=O)n(C5CCNCC5)cnc4c3)cc(F)c2n1 [Compound 206, 7-(7-fluoro-2-methyl-2H-indazol-5-yl)-3-(piperidin-4-yl)quinazolin-4(3H)-one]",0.1 to 1,0.1 to 1
0.1 to 1,1 to 10,1 to 10,"Cc1cn2cc(-c3ccc4c(=O)n(C5CCN(C)CC5)cnc4c3)cc(F)c2n1 [Compound 207, 7-(8-fluoro-2-methylimidazo[1,2-a]pyridin-6-yl)-3-(1-methylpiperidin-4-yl)quinazolin-4(3H)-one]",1 to 10,1 to 10
0.1 to 1,> 10,> 10,"CN1CCC(n2cnc3cc(-c4ccc5nn(C)cc5c4)ccc3c2=O)CC1 [Compound 208, 7-(2-methyl-2H-indazol-5-yl)-3-(1-methylpiperidin-4-yl)quinazolin-4(3H)-one]",> 10,1 to 10
< 0.1,1 to 10,1 to 10,"CN1CCC(n2cnc3cc(-c4cc(F)c5nn(C)cc5c4)ccc3c2=O)CC1 [Compound 209, 7-(7-fluoro-2-methyl-2H-indazol-5-yl)-3-(1-methylpiperidin-4-yl)quinazolin-4(3H)-one]",1 to 10,0.1 to 1
0.1 to 1,1 to 10,1 to 10,"Cc1cn2cc(-c3ccc4c(=O)n(C5CCNCC5)cnc4c3F)cc(F)c2n1 [Compound 210, 8-fluoro-7-(8-fluoro-2-methylimidazo[1,2-a]pyridin-6-yl)-3-(piperidin-4-yl)quinazolin-4(3H)-one]",1 to 10,1 to 10
< 0.1,1 to 10,1 to 10,Cc1nc2c(F)cc(-c3ccc4c(c3)CCN(C3CCNCC3)C4=O)cc2o1 [Compound 215],1 to 10,1 to 10
< 0.1,1 to 10,1 to 10,Cc1cn2cc(-c3ccc4c(c3)CCN(C3CCNCC3)C4=O)cc(Cl)c2n1 [Compound 216],1 to 10,1 to 10
0.1 to 1,> 10,1 to 10,Cc1cn2cc(-c3ccc4c(c3)CCN(C3CCNCC3)C4=O)cc(C)c2n1 [Compound 217],1 to 10,1 to 10
1 to 10,1 to 10,1 to 10,Cc1cn2cc(-c3ccc4c(c3)CCN(C3CCNCC3)C4=O)c(C)cc2n1 [Compound 218],1 to 10,1 to 10
< 0.1,1 to 10,1 to 10,Cc1cc(-c2ccc3c(c2)CCN(C2CCNCC2)C3=O)cc2cn(C)nc12 [Compound 219],1 to 10,1 to 10
> 10,> 10,> 10,O=C1c2ccc(-c3cn[nH]c3)cc2CCN1C1CCNCC1 [Compound 220],> 10,> 10
0.1 to 1,> 10,> 10,Cc1cn2cc(-c3ccc4c(c3)CCN(C3CCNCC3)C4=O)nc2c(C)n1 [Compound 221],> 10,> 10
0.1 to 1,1 to 10,1 to 10,Cc1cn2nc(-c3ccc4c(c3)CCN(C3CCNCC3)C4=O)nc2c(C)n1 [Compound 222],1 to 10,1 to 10
0.1 to 1,> 10,1 to 10,Cc1cn2nc(-c3ccc4c(c3)CCN(C3CCNCC3)C4=O)cc2c(C)n1 [Compound 223],1 to 10,1 to 10
0.1 to 1,> 10,> 10,Cc1cn2cc(-c3ccc4c(c3)CCN(C3CCNCC3)C4=O)ncc2n1 [Compound 224],> 10,> 10
> 10,> 10,> 10,Cn1cc2cc(-c3ccc4c(c3)CCN(C3CCNCC3)C4=O)cc(F)c2n1 [Compound 225],> 10,> 10
0.1 to 1,> 10,> 10,Cc1nc2c(F)cc(-c3ccc4c(c3)CCN(C3CCNCC3)C4=O)cc2s1 [Compound 226],> 10,> 10
0.1 to 1,> 10,1 to 10,"Cc1cn2cc(-c3ccc4c(=O)n(C5CCN(C)CC5)cnc4c3F)cc(F)c2n1 [Compound 227, 8-fluoro-7-(8-fluoro-2-methylimidazo[1,2-a]pyridin-6-yl)-3-(1-methylpiperidin-4-yl)quinazolin-4(3H)-one]",1 to 10,1 to 10

# From patent publication US20230159496A1, “COMPOUNDS AND METHODS FOR MODULATING SPLICING” (REMIX THERAPEUTICS INC., priority 2020, published 2023)
